Converted amounts (≈) assume the structure as drawn. The source made the active and inactive calls. No cut-off for these calls is given here.
Key:
[1] = system: Candida albicans; assay: Antifungal activity against Candida albicans SP3876 assessed as inhibition of fungal growth incubated for 48 hrs; assay type: functional
[2] = system: Candida albicans; assay: Antifungal activity against Candida albicans SP3902 assessed as inhibition of fungal growth incubated for 48 hrs; assay type: functional
[3] = system: Candida albicans; assay: Antifungal activity against Fluconazole-resistant Candida albicans 56214 assessed as inhibition of fungal growth incubated for 48 hrs; assay type: functional
[4] = system: Candida albicans; assay: Antifungal activity against Candida albicans 14936 assessed as inhibition of fungal growth incubated for 48 hrs; assay type: functional
[5] = system: Candida albicans; assay: Antifungal activity against Candida albicans SP3931 assessed as inhibition of fungal growth incubated for 48 hrs; assay type: functional
[6] = system: Candida tropicalis; assay: Antifungal activity against Candida tropicalis CGMCC 2.1975 assessed as inhibition of fungal growth incubated for 48 hrs; assay type: functional
[7] = system: Candida parapsilosis; assay: Antifungal activity against Candida parapsilosis CGMCC 2.3989 assessed as inhibition of fungal growth incubated for 48 hrs; assay type: functional; conditions: Lodderomyces parapsilosis
[8] = system: Candida albicans; assay: Antifungal activity against Fluconazole-resistant Candida albicans 58288 assessed as inhibition of fungal growth incubated for 48 hrs; assay type: functional
[9] = system: Candida albicans; assay: Antifungal activity against Candida albicans SP3903 assessed as inhibition of fungal growth incubated for 48 hrs; assay type: functional
[10] = system: Candida albicans; assay: Antifungal activity against Candida albicans CGMCC 2.2086 assessed as inhibition of fungal growth incubated for 48 hrs; assay type: functional
[11] = system: Candida albicans; assay: Resistance development in Candida albicans CGMCC 2.2086 assessed as fold increase in MIC after 20 passages by broth microdilution method relative to control; assay type: functional
[12] = system: Candida albicans; assay: Resistance development in Candida albicans CGMCC 2.2086 assessed as fold increase in MIC after 30 passages by broth microdilution method relative to control; assay type: functional
[13] = system: Candida albicans; assay: Antifungal activity against Candida albicans 17546 assessed as inhibition of fungal growth incubated for 48 hrs; assay type: functional
[14] = system: Candida albicans; assay: Antifungal activity against Candida albicans 56452 assessed as inhibition of fungal growth incubated for 48 hrs; assay type: functional
[15] = system: Candida albicans; assay: Antifungal activity against Candida albicans CGMCC 2.2086 assessed as inhibition of fungal growth incubated for 2 hrs in presence of protease K; assay type: functional, organism-based
[16] = system: Candida albicans; assay: Antifungal activity against Candida albicans CGMCC 2.2086 assessed as inhibition of fungal growth incubated for 48 hrs in presence of NH4Cl; assay type: functional
[17] = system: Cell membrane; assay: Disruption of Candida albicans CGMCC 2.2086 cell membrane at 1X MIC measured after 1 hr by SYTO9/propidium iodide staining based fluorescence microscopic analysis; assay type: subcellular
[18] = Stability of the compound in NH4Cl assessed as change in secondary structure by CD spectra analysis; assay type: physicochemical
[19] = system: HEK293; assay: Cytotoxicity against HEK293 cells assessed as cell death at 64 uM measured after 8 hrs by calcein-AM and propidium iodide Live/Dead dye staining assay; assay type: toxicity, cell-based; conditions: human, hek293, 8 h
[20] = Stability of the compound in CaCl2 assessed as change in secondary structure by CD spectra analysis; assay type: physicochemical
[21] = system: Candida albicans; assay: Induction of Candida albicans CGMCC 2.2086 cell wall permeabilization by NPN probe based assay; assay type: functional, organism-based; conditions: dose 1-128 µM
[22] = system: Candida albicans; assay: Antifungal activity against Candida albicans CGMCC 2.2086 assessed as inhibition of fungal growth incubated for 48 hrs in presence of KCl; assay type: functional
[23] = Stability of the compound in NaCl assessed as change in secondary structure by CD spectra analysis; assay type: physicochemical
[24] = system: Candida albicans; assay: Antifungal activity against Candida albicans CGMCC 2.2086 assessed as inhibition of fungal growth incubated for 48 hrs in presence of ZnCl2; assay type: functional
[25] = system: Candida albicans; assay: Induction of ROS generation in Candida albicans CGMCC 2.2086 measured after 60 mins by […] dye based fluorescence assay; assay type: functional, organism-based; conditions: dose 0.5-128 µM
[26] = system: Candida albicans; assay: Antifungal activity against Candida albicans CGMCC 2.2086 assessed as inhibition of fungal growth incubated for 2 hrs in presence of chymotrypsin; assay type: functional, organism-based
[27] = Hemolytic activity in human red blood cells assessed as hemolysis incubated for 1 hr; assay type: toxicity, cell-based, Erythrocyte
[28] = system: Candida albicans; assay: Induction of Candida albicans CGMCC 2.2086 cell wall permeabilization at 128 uM by NPN probe based assay relative to control; assay type: functional
[29] = system: Candida albicans; assay: Antifungal activity against Candida albicans CGMCC 2.2086 assessed as inhibition of fungal growth incubated for 48 hrs in presence of CaCl2; assay type: functional
[30] = system: Candida albicans; assay: Antifungal activity against Candida albicans CGMCC 2.2086 assessed as inhibition of fungal growth incubated for 2 hrs in presence of trypsin; assay type: functional, organism-based
[31] = system: Candida albicans; assay: Antifungal activity against Candida albicans CGMCC 2.2086 assessed as inhibition of fungal growth incubated for 48 hrs in presence of FeCl3; assay type: functional
[32] = system: Candida albicans; assay: Antibiofilm activity against Candida albicans CGMCC 2.2086 assessed as inhibition of biofilm formation at antifungal MIC measured after 48 hrs by crystal violet staining based assay; assay type: functional
[33] = system: Candida albicans; assay: Antifungal activity against Candida albicans CGMCC 2.2086 assessed as inhibition of fungal growth incubated for 2 to 4 hrs in presence of 100% serum; assay type: functional, organism-based; conditions: time 2-4 hrs
[34] = Stability of the compound in ZnCl2 assessed as change in secondary structure by CD spectra analysis; assay type: physicochemical
[35] = system: Candida albicans; assay: Induction of morphological changes in Candida albicans CGMCC 2.2086 assessed as appearance of cell pits at 1X MIC measured after 60 mins by SEM analysis; assay type: functional, organism-based
[36] = system: Candida albicans; assay: Antifungal activity against Candida albicans CGMCC 2.2086 assessed as inhibition of fungal growth incubated for 48 hrs in presence of NaCl; assay type: functional
[37] = Stability of the compound in KCl assessed as change in secondary structure by CD spectra analysis; assay type: physicochemical
[38] = system: Cell membrane; assay: Induction of cytoplasmic membrane depolarization in Candida albicans CGMCC 2.2086 at 0.5 to 2X MIC measured up to 3600 secs by DISC3-5 dye based fluorescence assay; assay type: subcellular; conditions: time <= 3600.0 sec
[39] = Stability of the compound in FeCl3 assessed as change in secondary structure by CD spectra analysis; assay type: physicochemical
[40] = system: Candida albicans; assay: Induction of morphological changes in Candida albicans CGMCC 2.2086 at 1X MIC measured after 60 mins by TEM analysis; assay type: functional, organism-based
[41] = Hemolytic activity in human red blood cells assessed as hemolysis rate at 512 uM incubated for 1 hr relative to control; assay type: toxicity, cell-based, Erythrocyte; conditions: read-out: Activity
[42] = system: Candida albicans; assay: Antifungal activity against Candida albicans CGMCC 2.2086 assessed as inhibition of fungal growth incubated for 48 hrs in presence of MgCl2; assay type: functional
[43] = Stability of the compound in MgCl2 assessed as change in secondary structure by CD spectra analysis; assay type: physicochemical

Structure (SMILES): OC(Cn1cncn1)(Cn1cncn1)c1ccc(F)cc1F [FLUCONAZOLE]
- MIC95 [1]: 8 µM (≈ 2.45 µg/mL)
- MIC95 [2]: 4 µM (≈ 1.23 µg/mL)
- MIC95 [3]: > 64 µM
- MIC95 [4]: 2 µM (≈ 0.613 µg/mL)
- MIC95 [5]: 2 µM (≈ 0.613 µg/mL)
- MIC95 [6]: 1 µM (≈ 0.306 µg/mL)
- MIC95 [7]: 4 µM (≈ 1.23 µg/mL)
- MIC95 [8]: > 64 µM
- MIC95 [9]: 2 µM (≈ 0.613 µg/mL)
- MIC95 [10]: 4 µM (≈ 1.23 µg/mL)
- fold change (FC) [11]: 64
- fold change (FC) [12]: 128
- MIC95 [13]: 1 µM (≈ 0.306 µg/mL)
- MIC95 [14]: 2 µM (≈ 0.613 µg/mL)

Structure (SMILES): CC(C)[C@H](N)C(=O)N[C@H](C(=O)N[C@H](CCCNC(=N)N)C(=O)N[C@@H](CCCNC(=N)N)C(=O)N[C@@H](Cc1c[nH]cn1)C(=O)N[C@H](C(=O)N[C@H](C(=O)N[C@H](C(=O)N[C@H](C(=O)N[C@H](CCCNC(=N)N)C(=O)N[C@@H](CCCNC(=N)N)C(=O)N[C@@H](Cc1c[nH]cn1)C(=O)N[C@H](C(=O)N[C@H](C(=O)N[C@H](C(=O)N[C@H](C(=O)N[C@H](CCCNC(=N)N)C(=O)N[C@@H](CCCNC(=N)N)C(=O)N[C@@H](Cc1c[nH]cn1)C(=O)N[C@H](C(=O)N[C@H](C(N)=O)C(C)C)C(C)C)C(C)C)C(C)C)C(C)C)C(C)C)C(C)C)C(C)C)C(C)C)C(C)C)C(C)C
- Activity [15]: Active
- MIC95 [1]: 8 µM (≈ 20.4 µg/mL)
- MIC95 [2]: 8 µM (≈ 20.4 µg/mL)
- MIC95 [16]: 4 µM
- MIC95 [3]: 8 µM (≈ 20.4 µg/mL)
- Activity [17]: Active
- Stability [18]: Stable
- MIC95 [4]: 8 µM (≈ 20.4 µg/mL)
- Activity [19]: Toxic
- Stability [20]: Stable
- Activity [21]: Dose-dependent-effect
- MIC95 [22]: 32 µM
- MIC95 [5]: 8 µM (≈ 20.4 µg/mL)
- MIC95 [6]: 4 µM (≈ 10.2 µg/mL)
- Stability [23]: Unstable
- MIC95 [7]: 4 µM (≈ 10.2 µg/mL)
- MIC95 [8]: 8 µM (≈ 20.4 µg/mL)
- MIC95 [24]: 8 µM
- Activity [25]: Dose-dependent-effect
- Activity [26]: Active
- HC50 at 1 h [27]: > 512 µM
- Activity [28]: <=100%
- MIC95 [29]: 32 µM
- MIC95 [9]: 4 µM (≈ 10.2 µg/mL)
- MIC95 [10]: 8 µM (≈ 20.4 µg/mL)
- Activity [30]: Active
- MIC95 [31]: 32 µM
- inhibition (INH) [32]: 90%
- growth inhibition (GI) [33]: Active; No Alterations In The Antimicrobial Activity Was Observed In Presence Of Serum
- Stability [34]: Stable
- Activity [35]: Active; Only Limited Number Of Pits Appeared
- MIC95 [13]: 4 µM (≈ 10.2 µg/mL)
- MIC95 [36]: 64 µM
- Stability [37]: Stable
- Activity [38]: Active
- Stability [39]: Stable
- MIC95 [14]: 4 µM (≈ 10.2 µg/mL)
- Activity [40]: inactive
- hemolysis at 1 h, 512 µM [41]: 8.58%
- MIC95 [42]: 8 µM
- Stability [43]: Stable

— ChEMBL document CHEMBL6134779, “Design of Proteolytic-Resistant Antifungal Peptides by Utilizing Minimum d-Amino Acid Ratios” (J Med Chem, 2024)
